From US8357798B2, “Process for preparing N-alkylated hydroxypyrimidinone compounds” (Merck Sharp & Dohme Corp., priority 2004, dated 2013)
Counter-ions that a name gives are not always drawn.

Key:
[1] = hygroscopicity (vapor sorption analysis); format: physicochemical; settings: for weight when equilibrated back down to 5% RH: 5% RH after 95% RH; for weight increase when equilibrated at 95% RH: 95% RH at 25° C.
Experimental: Hygroscopicity data was obtained on a VTI Symmetrical Vapor Sorption Analyzer Model SGA-1. Data was collected at room temperature from 5-95% relative humidity and back, 5% relative humidity change per step. Equilibrium conditions were 0.01 weight percent change in 5 minutes with a maximum equilibration time of 180 minutes.

[2] = solubility in water; format: physicochemical
[3] = target: HIV integrase (Human immunodeficiency virus type 1 group M subtype B, UniProt P04585); assay: integrase inhibition assay in which strand transfer is catalyzed by recombinant integrase; format: biochemical; settings: assay of Example 193 of WO 02/30930
Description: Compound A is an inhibitor of HIV integrase. […] The strand transfer assay is described in Example 193 of WO 02/30930.

[4] = test system: acute HIV infection of T-lymphoid cells; assay: assay for the inhibition of acute HIV infection of T-lymphoid cells; format: cell-based; settings: in accordance with Vacca et al., PNAS 1994, 91: 4096-4100
[5] = listed as Form 1 Crystalline Potassium Salt of Compound A

In the case of `Cc1nnc(C(=O)NC(C)(C)c2nc(C(=O)NCc3ccc(F)cc3)c(O)c(=O)n2C)o1` [listing 1 of 2 here], the “weight when equilibrated back down to 5% RH” value [1, 5] is reported as “returned back to approximately its dry weight”, the “weight increase when equilibrated at 95% RH” value [1, 5] is reported as 1.8% and the “phase by XRPD after the hygroscopicity experiment” value ([1]; XRPD after 5-95% RH cycle) is reported as “had not changed phases”.

With `Cc1nnc(C(=O)NC(C)(C)c2nc(C(=O)NCc3ccc(F)cc3)c(O)c(=O)n2C)o1` [potassium salt of Compound A] the solubility in water [2] was “comparatively quite soluble” and the “solubility in water compared to the free base” value ([2]; relative to Compound A free base) was “significantly more soluble”.

For `Cc1nnc(C(=O)NC(C)(C)c2nc(C(=O)NCc3ccc(F)cc3)c(O)c(=O)n2C)o1` [Compound A, N-(4-fluorobenzyl)-5-hydroxy-1-methyl-2-(1-methyl-1-{[(5-methyl-1,3,4-oxadiazol-2-yl)carbonyl]amino}ethyl)-6-oxo-1,6-dihydropyrimidine-4-carboxamide], the “inhibition of integrase strand transfer” value [3] was “potent inhibitor”, the solubility in water [2] was “limited” and the “inhibition of acute HIV infection of T-lymphoid cells” value [4] was “active”.

In the case of `Cc1nnc(C(=O)NC(C)(C)c2nc(C(=O)NCc3ccc(F)cc3)c(O)c(=O)n2C)o1` [listing 2 of 2 here], the “weight when equilibrated back down to 5% RH” value [1] is reported as “returned to its dry weight” and the “weight increase when equilibrated at 95% RH” value [1] is reported as 1%.
